Data as given in patent publication US12257287B2, “Glucagon-derived peptide and use thereof” (Tianjin Institute of Pharmaceutical Research Co., Ltd., priority 2018, dated 2025).
In brackets after ≈: the same amount, converted by molar mass. Marks after values point to notes of the source that are not given here. Numbered stars: 1 amine (or outer) side, 2 acyl side, 3 side chain; on linkers, the order of the positions; unused ones are H or OH. Square brackets hold non-standard residues; d marks the D form. Side chains are listed from the residue outwards. Peptide text beside a SMILES is read from it. * marks the point of attachment. C20 diacid = O=C(O)CCCCCCCCCCCCCCCCCCC(=O)*; C18 diacid = O=C(O)CCCCCCCCCCCCCCCCC(=O)*; γGlu = O=C(O)[C@H](CCC(=O)[*:2])N[*:1]; AEEA = NCCOCCOCC(=O)O; Aib = CC(C)(N)C(=O)O

Legend:
physchem = type: physicochemical
[1] = Effect on body weight of DIO mice after 14 days' administration; type: in vivo, C57BL/6J mice; details: DIO mice, subcutaneous injection every day for 14 days; (initial−last)/initial; positive values indicate a decrease
Description: C57BL/6J mice (n=35), model group (n=30) were fed with H10060 high-fat diet to induce obesity (DIO), blank control group (n=5) were fed with standard diet, both for 34 weeks. One day before the first administration, the model group was randomly divided into groups according to their body weight (average body weight range 45.0-52.0 g), with 5 mice in each group, which respectively were model control group, positive control group (semaglutide), and test sample group (1 #-4 # are compound 1, compound 4, compound 6 and compound 22, respectively). The blank control group and model control group were given saline subcutaneously every day, while the positive control group and test sample group were administrated by subcutaneous injection every day for 14 days. The body weight of the animals was weighed and recorded every day, and the change rate of body weight (%) was calculated by comparing the body weight at the last administration day with the initial body weight. (initial body weight−last body weight)/initial body weight=body weight change rate (%). Calculation formula: […]
Calculated positive values indicate a decrease and negative values indicate an increase.
(§1) Methods are the same as that in Example 3, the test results of effects on body weight are shown in Table 5, and the effects on blood glucose are shown in Table 6. In the table, 5 #-9 # are compound 27, compound 35, compound 54, compound 57, and compound 66, respectively.

human GLP-1 receptor = biological target: T1, human GLP-1 receptor (Homo sapiens, UniProt P43220); experiment: GLP-1 receptor mediated cAMP production in vitro; type: cell-based; details: cells transfected with human GLP-1 receptor, 20 min at 37° C., read-out: GLP-1R (nM EC50)
T1 construct: expressed in transfected cells; host or cells: Chinese guinea pig lung cells [sic]
T1 sequence (P43220 24-463): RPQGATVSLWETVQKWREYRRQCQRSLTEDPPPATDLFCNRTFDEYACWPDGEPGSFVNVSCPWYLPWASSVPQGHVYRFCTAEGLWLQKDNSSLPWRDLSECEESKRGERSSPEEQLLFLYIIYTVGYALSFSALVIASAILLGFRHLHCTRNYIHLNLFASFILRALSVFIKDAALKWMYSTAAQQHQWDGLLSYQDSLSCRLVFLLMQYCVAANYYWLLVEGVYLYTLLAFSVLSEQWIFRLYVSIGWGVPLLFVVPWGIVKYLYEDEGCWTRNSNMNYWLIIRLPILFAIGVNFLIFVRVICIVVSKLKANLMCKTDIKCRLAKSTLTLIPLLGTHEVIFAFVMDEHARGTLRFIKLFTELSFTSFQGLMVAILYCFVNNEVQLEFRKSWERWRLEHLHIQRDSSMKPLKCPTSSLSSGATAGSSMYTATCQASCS
Description: (§2) The medium was removed, the cells were lysed, and cAMP values were detected referring to the detection method described for the assay kit.

[2] = Glucose tolerance test in glucose-loaded DIO mice; type: in vivo; details: for AUC of blood glucose, Table 4: DIO mice fasted 16 h, glucose 1 g/kg i.p. 1 h after s.c. administration, 0.5, 1, 1.5 h; for AUC reduction rate (%), Table 4: blood glucose inhibition rate compared with model control group, DIO mice, glucose 1 g/kg i.p.
Procedure: DIO mice fasted for 16 h, and 1 h after administration by subcutaneous injection, glucose solution (1 g/kg) was given intraperitoneally for glucose tolerance test. Blood glucose values were measured at 0.5, 1 and 1.5 h after glucose administration. The area under the blood glucose concentration curve (AUC) was calculated and compared with that of the model control group, and the blood glucose inhibition rate (%) was calculated.
as §1

GC receptor = biological target: T2, GC receptor (Homo sapiens, UniProt P47871); experiment: GC receptor mediated cAMP production in vitro (HEK293 cells transfected with GC receptor); type: cell-based; details: 20 min at 37° C., read-out: GCGR (nM EC50)
T2 construct: expressed in transfected cells; host or cells: HEK293 cells
T2 sequence (P47871 26-477): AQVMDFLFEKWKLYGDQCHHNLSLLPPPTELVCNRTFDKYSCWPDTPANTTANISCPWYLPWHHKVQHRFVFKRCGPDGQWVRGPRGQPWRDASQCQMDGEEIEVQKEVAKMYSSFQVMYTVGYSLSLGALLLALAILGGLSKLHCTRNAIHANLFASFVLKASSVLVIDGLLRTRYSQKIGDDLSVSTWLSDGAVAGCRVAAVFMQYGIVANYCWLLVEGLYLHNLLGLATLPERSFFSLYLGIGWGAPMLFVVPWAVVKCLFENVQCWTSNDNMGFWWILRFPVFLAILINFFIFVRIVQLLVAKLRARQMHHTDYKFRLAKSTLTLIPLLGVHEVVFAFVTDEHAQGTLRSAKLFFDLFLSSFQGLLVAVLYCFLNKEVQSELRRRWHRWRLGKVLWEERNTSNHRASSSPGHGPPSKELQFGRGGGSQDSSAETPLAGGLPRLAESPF
Description: as §2

[3] = Short-term administration: food intake and body weight in DIO mice; type: in vivo; details: 30 nmol/kg once every 24 h, twice, − decrease; for Rate of change in food intake (%): at 48 hours vs day before administration; for Body weight change: at 48 hours
Outline: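 DIO mice (mean body weight 52.5 g), 5 per group, dosed at 30 nmol/kg every 24 h for two doses, in 10 mM PBS pH 7.4; controls received solvent. Food intake and body weight at 48 h expressed as change rate versus the day before dosing.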

[4] = Accelerated chemical stability in injection solvent system (HPLC-UV); type: physicochemical; details: 14 days, phosphate buffer pH 7.3 with Tween 80 and phenol, main peak area vs day 0
Outline: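 Compound dissolved in 10 mM pH 8.5 sodium hydrogen phosphate buffer, adjusted to pH 7.3, with Tween 80 and phenol added. Solutions stored 14 days at 10 °C and 37 °C; HPLC-UV main-peak area by normalisation compared against day 0.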

[5] = pH 7.5, Solubility, pH 7.5, 10 mM phosphate buffer
[6] = pH 7.5, Solubility, pH 7.5, 20 mM phosphate buffer
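For Solubility in this document: compound added at 2 mg per mL of phosphate buffer, with the dissolved amount determined in the supernatant.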
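For Solubility, pH 7.5, 20 mM phosphate buffer in this document: compound added at 2 mg per mL of phosphate buffer, with the dissolved amount determined in the supernatant.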

SMILES	Solubility, pH 7.5, 20 mM phosphate buffer (physchem; pH 7.5)	solubility (physchem; [5])	solubility (physchem; pH 8, Solubility, pH 8.0, 10 mM phosphate buffer)	solubility (physchem; pH 8, Solubility, pH 8.0, 20 mM phosphate buffer)	body weight change rate, Table 3 [1]	EC50 (human GLP-1 receptor)	AUC of blood glucose, Table 4 [2]	AUC reduction rate (%), Table 4 [2]	EC50 (GC receptor)	solubility (physchem; [6])	Rate of change in food intake (%) [3]	Body weight change [3]	Change in purity % (10° C.) ([4]; 10° C.)	Change in purity % (37° C.) ([4]; 37° C.)
CCCCCCCCCCCCCCCC(=O)N[C@@H](CCC(=O)N[C@@H](CCC(=O)NCCCC[C@H](NC(=O)[C@H](CC(=O)O)NC(=O)[C@H](CO)NC(=O)[C@@H](NC(=O)[C@H](Cc1ccccc1)NC(=O)[C@@H](NC(=O)CNC(=O)[C@H](CCC(N)=O)NC(=O)C(C)(C)NC(=O)[C@@H](N)Cc1c[nH]cn1)[C@@H](C)O)[C@@H](C)O)C(=O)N[C@@H](CO)C(=O)N[C@@H](CCCCN)C(=O)N[C@@H](Cc1ccc(O)cc1)C(=O)N[C@@H](CC(C)C)C(=O)N[C@@H](CCC(=O)O)C(=O)N[C@@H](CCC(=O)O)C(=O)N[C@@H](CCCNC(=N)N)C(=O)N[C@@H](C)C(=O)N[C@@H](C)C(=O)N[C@@H](CCCCN)C(=O)N[C@@H](CCC(=O)O)C(=O)N[C@@H](Cc1ccccc1)C(=O)N[C@H](C(=O)N[C@@H](C)C(=O)N[C@@H](Cc1c[nH]c2ccccc12)C(=O)N[C@@H](CC(C)C)C(=O)N[C@@H](CCCCN)C(=O)N[C@@H](CCC(=O)O)C(=O)NCC(=O)NCC(=O)N1CCC[C@H]1C(=O)N[C@@H](CO)C(=O)N[C@@H](CO)C(=O)NCC(N)=O)C(C)C)C(=O)O)C(=O)O [Compound 3] (HELM PEPTIDE1{H.[Aib].Q.G.T.F.T.S.D.K.S.K.Y.L.E.E.R.A.A.K.E.F.V.A.W.L.K.E.G.G.P.S.S.G.[am]}|PEPTIDE2{[CCCCCCCCCCCCCCCC(=O)[*:2]].[gGlu].[gGlu]}$PEPTIDE1,PEPTIDE2,10:R3-3:R2$$$V2.0; N-terminus assumed)	Insoluble	60 µg/mL (≈ 14.2 µM)	170 µg/mL (≈ 40.3 µM)	90 µg/mL (≈ 21.3 µM)	22.0%	20.7 nM	8.66 ± 2.14 mmol·h/L	59.1** %	0.1 nM	–	–	–	–	–
CC[C@H](C)[C@H](NC(=O)[C@H](Cc1ccccc1)NC(=O)[C@H](CCC(=O)O)NC(=O)[C@H](CCCCN)NC(=O)[C@H](C)NC(=O)[C@H](C)NC(=O)[C@H](CCCNC(=N)N)NC(=O)[C@H](CCC(=O)O)NC(=O)[C@H](CC(=O)O)NC(=O)[C@H](CC(C)C)NC(=O)[C@H](Cc1ccc(O)cc1)NC(=O)[C@H](CCCCN)NC(=O)[C@H](CO)NC(=O)[C@H](CCCCNC(=O)COCCOCCNC(=O)COCCOCCNC(=O)CC[C@H](NC(=O)CCCCCCCCCCCCCCCCC(=O)O)C(=O)O)NC(=O)[C@H](CC(=O)O)NC(=O)[C@H](CO)NC(=O)[C@@H](NC(=O)[C@H](Cc1ccccc1)NC(=O)[C@@H](NC(=O)CNC(=O)[C@H](CCC(N)=O)NC(=O)C(C)(C)NC(=O)[C@@H](N)Cc1c[nH]cn1)[C@@H](C)O)[C@@H](C)O)C(=O)N[C@@H](C)C(=O)N[C@@H](Cc1c[nH]c2ccccc12)C(=O)N[C@@H](CC(C)C)C(=O)N[C@@H](CCC(=O)O)C(=O)NCC(=O)NCC(=O)N1CCC[C@H]1C(=O)N[C@@H](CO)C(=O)N[C@@H](CO)C(=O)NCC(N)=O [Compound 75] (H-H[Aib]QGTFTSDK([AEEA-AEEA-γGlu-C18 diacid])SKYLDERAAKEFIAWLEGGPSSG-NH2; N-terminus assumed)	–	> 2000 µg/mL	–	–	–	0.141 nM	–	–	0.087 nM	> 2000 µg/mL	−60%	-2.4 g	−1.9%	−4.5%
CCCCCCCCCCCCCCCC(=O)N[C@@H](CCC(=O)N[C@@H](CCC(=O)NCCCC[C@H](NC(=O)[C@H](CC(=O)O)NC(=O)[C@H](CO)NC(=O)[C@@H](NC(=O)[C@H](Cc1ccccc1)NC(=O)[C@@H](NC(=O)CNC(=O)[C@H](CCC(N)=O)NC(=O)C(C)(C)NC(=O)[C@@H](N)Cc1c[nH]cn1)[C@@H](C)O)[C@@H](C)O)C(=O)N[C@@H](CO)C(=O)N[C@@H](CCCCN)C(=O)N[C@@H](Cc1ccc(O)cc1)C(=O)N[C@@H](CC(C)C)C(=O)N[C@@H](CCC(=O)O)C(=O)N[C@@H](CCC(=O)O)C(=O)N[C@@H](CCCNC(=N)N)C(=O)N[C@@H](C)C(=O)N[C@@H](C)C(=O)N[C@@H](CCCCN)C(=O)N[C@@H](CCC(=O)O)C(=O)N[C@@H](Cc1ccccc1)C(=O)N[C@H](C(=O)N[C@@H](CCC(=O)O)C(=O)N[C@@H](Cc1c[nH]c2ccccc12)C(=O)N[C@@H](CC(C)C)C(=O)N[C@@H](CCC(=O)O)C(=O)N[C@@H](C)C(=O)NCC(=O)NCC(=O)N1CCC[C@H]1C(=O)N[C@@H](CO)C(=O)N[C@@H](CO)C(=O)NCC(N)=O)C(C)C)C(=O)O)C(=O)O [Compound 2] (HELM PEPTIDE1{H.[Aib].Q.G.T.F.T.S.D.K.S.K.Y.L.E.E.R.A.A.K.E.F.V.E.W.L.E.A.G.G.P.S.S.G.[am]}|PEPTIDE2{[CCCCCCCCCCCCCCCC(=O)[*:2]].[gGlu].[gGlu]}$PEPTIDE1,PEPTIDE2,10:R3-3:R2$$$V2.0; N-terminus assumed)	–	> 2000 µg/mL	–	–	22.0%	0.219 nM	8.06 ± 2.06 mmol·h/L	61.9** %	0.0352 nM	> 2000 µg/mL	–	–	–	–
CC[C@H](C)[C@H](NC(=O)[C@H](Cc1ccccc1)NC(=O)[C@H](CCC(=O)O)NC(=O)[C@H](CCCCN)NC(=O)[C@H](C)NC(=O)[C@H](C)NC(=O)[C@H](CCCNC(=N)N)NC(=O)[C@H](CCC(=O)O)NC(=O)[C@H](CC(=O)O)NC(=O)[C@H](CC(C)C)NC(=O)[C@H](Cc1ccc(O)cc1)NC(=O)[C@H](CCCCN)NC(=O)[C@H](CO)NC(=O)[C@H](CCCCNC(=O)COCCOCCNC(=O)COCCOCCNC(=O)CC[C@H](NC(=O)CCCCCCCCCCCCCCCCCCC(=O)O)C(=O)O)NC(=O)[C@H](CC(=O)O)NC(=O)[C@H](CO)NC(=O)[C@@H](NC(=O)[C@H](Cc1ccccc1)NC(=O)[C@@H](NC(=O)CNC(=O)[C@H](CCC(N)=O)NC(=O)C(C)(C)NC(=O)[C@@H](N)Cc1c[nH]cn1)[C@@H](C)O)[C@@H](C)O)C(=O)N[C@@H](C)C(=O)N[C@@H](Cc1c[nH]c2ccccc12)C(=O)N[C@@H](CC(C)C)C(=O)N[C@@H](CCC(=O)O)C(=O)N[C@@H](C)C(=O)NCC(=O)NCC(=O)N1CCC[C@H]1C(=O)N[C@@H](CO)C(=O)N[C@@H](CO)C(=O)NCC(N)=O [Compound 77] (H-H[Aib]QGTFTSDK([AEEA-AEEA-γGlu-C20 diacid])SKYLDERAAKEFIAWLEAGGPSSG-NH2; N-terminus assumed)	–	–	–	–	–	0.291 nM	–	–	0.076 nM	–	−51%	-2.9 g	–	–
